Experimental findings from ChEMBL document CHEMBL1201862, “PubChem BioAssay data set” (2004) are described below.

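Each compound was tested at five concentrations against cells in 96-well plates for 48 hours. Abbreviation: GI50, concentration required for 50% inhibition of growth.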 Activity calls are given as the source filed them. Cut-off read from the data, not from the text of the source: active = GI50 up to about 1.1 µM and inactive = higher.

Test systems include M14; HT-29; NCI-H460; LOX IMVI; U-251; NCI-H522; EKVX; HCT-15; HOP-92; MOLT-4; Hs-578T; 786-0; DU-145; BT-549; UACC-257; OVCAR-3; UO-31; KM12; SF-295; HL-60.
Holding throughout (test): NCI anticancer screen, dose series, 48 h

Regarding `Oc1c2c(nc3cc4c(cc13)OCO4)-c1ccccc1CCC2`, the GI50 in the assay on M14 was 49.3 µM (inactive); in the assay with HT-29 it was 34.4 µM (inactive); in the assay with NCI-H460, > 50 µM (inactive); in the assay with LOX IMVI, 43.3 µM (inactive); with U-251, > 50 µM (inactive); with NCI-H522, > 50 µM (inactive). Besides, the GI50 with EKVX was > 50 µM (inactive); with HCT-15, more than 50 µM; with HOP-92 it was > 50 µM (inactive); in the assay on MOLT-4, > 50 µM (inactive); in the assay with Hs-578T, 15.9 µM (inactive); with 786-0 it was > 50 µM (inactive). Also, the GI50 in the assay with DU-145, in the assay on BT-549, in the assay with UACC-257, in the assay with OVCAR-3, in the assay with UO-31 and in the assay with KM12 was > 50 µM (inactive) each time. In the assay on SF-295, the GI50 is 17.1 µM (inactive).
As for `O=C1NC(=O)c2ccc([N+](=O)[O-])c3cccc1c23`, the GI50 is 14.8 µM (inactive) in the assay with M14; 16 µM (inactive) with HT-29; 11.5 µM (inactive) in the assay with NCI-H460; 15.4 µM (inactive) in the assay on U-251; 2.01 µM (inactive) in the assay on NCI-H522; 28.3 µM (inactive) in the assay with EKVX. The GI50 in the assay with HCT-15 is 5.31 µM; in the assay with HOP-92, 20 µM (inactive); in the assay on Hs-578T it was 25.2 µM (inactive); with 786-0, 14 µM (inactive); with DU-145 it was 34 µM (inactive); in the assay on BT-549 it was 19.2 µM (inactive). Besides, the values for the GI50 in the assay on UACC-257, in the assay with UO-31 and in the assay on SF-295 were 16.9 µM (inactive), 16.3 µM (inactive) and 17.6 µM (inactive), respectively.
Turning to `CCN(CC)c1ccc2cc(-c3nnc(-c4ccccc4)[nH]3)c(=O)oc2c1`, the GI50 with M14 was > 100 µM (inactive); with HT-29, 33 µM (inactive); in the assay on NCI-H460 it was 82 µM (inactive); in the assay on LOX IMVI, 94.4 µM (inactive); in the assay with U-251, 15 µM (inactive); with NCI-H522, 18.7 µM (inactive). For the same molecule, the GI50 in the assay with EKVX is 22.8 µM (inactive); with HCT-15, more than 100 µM; with MOLT-4, > 100 µM (inactive); in the assay with Hs-578T it was 39.9 µM (inactive); in the assay on 786-0 it was 14.3 µM (inactive); in the assay on DU-145, 14.8 µM (inactive). Further, the GI50 in the assay on BT-549 was 25.2 µM (inactive); in the assay with UACC-257, > 100 µM (inactive); in the assay with OVCAR-3, 40.5 µM (inactive); with UO-31 it was 4.39 µM (inactive); in the assay with HL-60, > 100 µM (inactive); in the assay on KM12, 40 µM (inactive). The GI50 with SF-295 is 24.5 µM (inactive).
As to `CN(C)CC(C)(C)CN1c2ccccc2Sc2ccccc21`, the GI50 was 10.4 µM (inactive) with M14; 10.8 µM (inactive) with HT-29; 13.5 µM (inactive) with NCI-H460; 13.6 µM (inactive) with LOX IMVI; 13.6 µM (inactive) in the assay on U-251; 13.2 µM (inactive) with NCI-H522. For the same molecule, the GI50 in the assay with EKVX was 15.4 µM (inactive); with HCT-15 it was more than 100 µM; in the assay on HOP-92 it was 11.8 µM (inactive); with MOLT-4, 6.55 µM (inactive); in the assay with Hs-578T, 14 µM (inactive); in the assay with 786-0, 12.9 µM (inactive). Further, the GI50 in the assay with DU-145 is 12.4 µM (inactive); in the assay on BT-549 it was 14 µM (inactive); in the assay on UACC-257 it was 12 µM (inactive); with OVCAR-3, 11.9 µM (inactive); with KM12, 12.8 µM (inactive); in the assay on SF-295, 13.8 µM (inactive).
On to `CCc1n[nH]c(=O)n1CCCCCCCCn1c(CC)n[nH]c1=O`, for which the GI50 with M14, in the assay with HT-29, in the assay on NCI-H460, with LOX IMVI, in the assay on U-251 and in the assay with NCI-H522 was > 100 µM (inactive) in each case. Besides, the GI50 with EKVX is > 100 µM (inactive); in the assay with HCT-15 it was more than 100 µM; in the assay on HOP-92, > 100 µM (inactive); in the assay with MOLT-4, > 100 µM (inactive); with Hs-578T, > 100 µM (inactive); in the assay on 786-0, > 100 µM (inactive). For the same molecule, the GI50 with BT-549, with UACC-257, in the assay on OVCAR-3, in the assay with UO-31, in the assay with KM12 and in the assay on SF-295 was > 100 µM (inactive) each time.
Take `O=c1[nH]c(=O)n(C2CC(O)C(CO)O2)cc1/N=N/NCc1ccccc1` (stereo not drawn): the GI50 with M14, in the assay on HT-29, in the assay on NCI-H460, in the assay with LOX IMVI, with U-251 and in the assay with NCI-H522 was > 100 µM (inactive) throughout. Moreover, the GI50 in the assay with EKVX is > 100 µM (inactive); in the assay on HCT-15, more than 100 µM; with MOLT-4, > 100 µM (inactive); with Hs-578T, > 100 µM (inactive); with 786-0 it was > 100 µM (inactive); with DU-145 it was > 100 µM (inactive). Further, the GI50 in the assay on BT-549, with UACC-257, in the assay with OVCAR-3, in the assay with UO-31, in the assay on HL-60 and in the assay on KM12 was > 100 µM (inactive) throughout. Further, the GI50 with SF-295 was 59 µM (inactive).
Regarding `Nn1c(SCC(=O)NCc2ccccc2)nc2ccccc2c1=O`, the GI50 in the assay on M14 was 36.6 µM (inactive); in the assay with HT-29, 45.4 µM (inactive); with NCI-H460, 46.3 µM (inactive); in the assay on LOX IMVI, 49 µM (inactive); in the assay on U-251 it was 88.9 µM (inactive); in the assay on NCI-H522 it was 41.7 µM (inactive). In addition, the GI50 with EKVX is 64.3 µM (inactive); in the assay with HCT-15 it was 67.8 µM; in the assay with HOP-92, 34.2 µM (inactive); with MOLT-4, 19.1 µM (inactive); in the assay with Hs-578T it was 57.5 µM (inactive); in the assay on 786-0, 55.6 µM (inactive). The GI50 was 65 µM (inactive) in the assay on DU-145; 73.3 µM (inactive) with BT-549; 58.2 µM (inactive) with UACC-257; 32.3 µM (inactive) with OVCAR-3; 43.9 µM (inactive) with UO-31; > 100 µM (inactive) with KM12. The GI50 in the assay with SF-295 was 48.6 µM (inactive).
For `O=P(O)(O)c1ccc(-c2ccc(I)cc2)cc1`, the GI50 in the assay on M14, in the assay on HT-29, in the assay with NCI-H460, with LOX IMVI, in the assay on U-251 and in the assay on NCI-H522 was > 100 µM (inactive) in each case. Also, the GI50 in the assay on EKVX was > 100 µM (inactive); in the assay on HCT-15, more than 100 µM; in the assay on MOLT-4, > 100 µM (inactive); in the assay on Hs-578T, > 100 µM (inactive); with 786-0, > 100 µM (inactive); in the assay with DU-145, > 100 µM (inactive). The GI50 in the assay on BT-549 is > 100 µM (inactive); with UACC-257 it was > 100 µM (inactive); in the assay on UO-31, > 100 µM (inactive); in the assay with HL-60 it was > 100 µM (inactive); in the assay on KM12 it was > 100 µM (inactive); in the assay with SF-295 it was > 10 µM (inactive).
Consider `COc1cc(/C=C2\CCC/C(=C\c3ccc(OC(=O)CCCCC4CCSS4)c(OC)c3)C2=O)ccc1OC(=O)CCCCC1CCSS1` (stereo not drawn), for which the GI50 in the assay with M14, in the assay with HT-29, with NCI-H460, in the assay on LOX IMVI, in the assay on U-251 and in the assay on NCI-H522 was > 100 µM (inactive) in each case. Moreover, the GI50 with EKVX was > 100 µM (inactive); in the assay on HCT-15 it was more than 100 µM; in the assay on MOLT-4, > 100 µM (inactive); with Hs-578T, > 100 µM (inactive); in the assay on 786-0 it was > 100 µM (inactive); in the assay on DU-145, > 100 µM (inactive). The GI50 in the assay with BT-549, in the assay on UACC-257, in the assay on OVCAR-3, with UO-31, in the assay on HL-60 and with KM12 was > 100 µM (inactive) each time. Further, in the assay on SF-295, the GI50 is > 100 µM (inactive).
In the case of `COc1ccc(C2CC3(c4ccccc4)ON=C(c4ccccc4)N3c3ccccc3S2)cc1` (stereo not drawn), the GI50 in the assay on M14, in the assay on HT-29, in the assay with NCI-H460, in the assay on LOX IMVI, with U-251 and in the assay on NCI-H522 was > 100 µM (inactive) throughout. The GI50 in the assay on EKVX is > 100 µM (inactive); with HCT-15 it was more than 100 µM; with Hs-578T, > 100 µM (inactive); in the assay with 786-0, > 100 µM (inactive); in the assay with DU-145, > 100 µM (inactive); with BT-549 it was > 100 µM (inactive). Besides, the GI50 in the assay with UACC-257 is > 100 µM (inactive); in the assay on OVCAR-3, > 100 µM (inactive); in the assay with UO-31 it was 51.2 µM (inactive); in the assay on KM12, > 100 µM (inactive); in the assay with SF-295, > 100 µM (inactive).
With `CCC[C@H]1C(=O)N=C(N)N1C(=O)OCc1ccccc1`, the GI50 with HT-29, in the assay on NCI-H460, with LOX IMVI, in the assay on U-251, with NCI-H522 and with EKVX was > 100 µM (inactive) throughout. Moreover, the GI50 in the assay on HCT-15 was more than 100 µM; in the assay on MOLT-4 it was > 100 µM (inactive); with Hs-578T, > 100 µM (inactive); in the assay on 786-0, > 100 µM (inactive); in the assay on BT-549, > 100 µM (inactive); in the assay with UACC-257 it was > 100 µM (inactive). Also, the GI50 with OVCAR-3 is > 100 µM (inactive); in the assay with UO-31, 86.9 µM (inactive); in the assay on HL-60 it was > 100 µM (inactive); in the assay on KM12, > 100 µM (inactive); in the assay with SF-295, > 100 µM (inactive).
